Data from patent US12171230B2, “Herbicidal compositions” (Bayer Aktiengesellschaft, priority 2018, dated 2024).
“And” between values parts separate entries of the source, which are not always exact repeats. Equal entries are not always repeated.

Experiments:
Format in all cases: in vivo
[1] = tested on: Echinochloa crus-galli; assay: Post-emergence herbicidal action against Echinochloa crus-galli; details: 100 g a.i./ ha, post-emergence
Summary of the method: (§1)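 Visual scoring against untreated controls, made 3 to 4 weeks after treatment, gives the % efficacy. Plants grown in pots of sandy loam were sprayed on green parts at the three-leaf stage with formulated compositions at 300 to 800 l/ha water. Combination efficacy above the Colby expected value indicates synergism.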

[2] = tested on: Sorghum halepense; assay: Post-emergence herbicidal action against Sorghum halepense; details: 1.7 g of a.i./ha
Summary of the method: as §1

[3] = tested on: Phalaris minor; assay: Post-emergence herbicidal action against Phalaris minor
[4] = tested on: Bromus sterilis; assay: Post-emergence herbicidal action against Bromus sterilis; details: 1 g of a.i./ha
[5] = tested on: Kochia scoparia; assay: Post-emergence herbicidal action against Kochia scoparia; details: 1.7 g of a.i./ha
Description: (§2) The following abbreviations are used in the description and the tables that follow: • g of a.i./ha=grams of active substance (active ingredient) (=100% active compound) per hectare; • The sum total of the effects of the individual applications is reported under E^A; • expected values according to Colby are each reported under E^C.
(§3) The rating period is reported in days after application (DAT).

[6] = tested on: Lolium rigidum; assay: Post-emergence herbicidal action against Lolium rigidum
Summary of the method: (§4)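 Colby-derived expected values (E^C) and the summed effects of the separate applications (E^A) accompany each rating. Active substance was dosed in grams per hectare on a 100% active-compound basis, with the rating period given as DAT.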

[7] = tested on: Lolium rigidum (resistant biotype); assay: Post-emergence herbicidal action against Lolium rigidum (resistant biotype)
Summary of the method: as §4

[8] = tested on: Alopecurus myosuroides; assay: Post-emergence herbicidal action against Alopecurus myosuroides
[9] = tested on: Ipomoea ssp.; assay: Post-emergence herbicidal action against Ipomoea ssp.; details: 45 DAT
[10] = tested on: Alopecurus myosuroides; assay: Post-emergence herbicidal action against Alopecurus myosuroides; remark: listed apart in the source
[11] = tested on: Lysimachia nummularia; assay: Post-emergence herbicidal action against Lysimachia nummularia; details: 45 DAT; 100 g a.i./ha
[12] = tested on: Phalaris minor; assay: Post-emergence herbicidal action against Phalaris minor; remark: listed apart in the source
[13] = tested on: Lolium rigidum; assay: Post-emergence herbicidal action against Lolium rigidum; remark: listed apart in the source
[14] = tested on: Lolium rigidum (resistant biotype); assay: Post-emergence herbicidal action against Lolium rigidum (resistant biotype); remark: listed apart in the source
[15] = tested on: Setaria viridis; assay: Post-emergence herbicidal action against Setaria viridis; details: 1.7 g of a.i./ha
Summary of the method: as §1

[16] = tested on: Ranunculus repens; assay: Post-emergence herbicidal action against Ranunculus repens; details: 100 g of a.i./ha
Description: (§5) When the observed efficacies exceed the formal sum total of the values of the tests with individual applications, they also exceed the expected value according to Colby, which is calculated using the formula below and is likewise regarded as an indication of synergism (cf. S. R. Colby; in Weeds 15 (1967) p. 20 to 22): E^C=A+B−([…])
(§6) Here: • A=efficacy of the active compound (A) in % at an application rate of a g a.i./ha; • B=efficacy of the active compound (B) in % at an application rate of b g a.i./ha; • E^C=expected value of the effect of the combination (A)+(B) in % at the combined application rate a+b g a.i./ha.
Seeds or rhizome pieces of mono- and dicotyledonous weeds are placed in sandy loam in pots, covered with soil and grown in a greenhouse under good growth conditions (temperature, air humidity, water supply). Three weeks after sowing, the test plants were treated at the three-leaf stage with the compositions according to the invention. The compositions according to the invention formulated as spray powders or as emulsion concentrates were sprayed onto the green plant parts in various dosages with an application rate of 300 to 800 l/ha of water (equivalent). […] The compositions according to the invention also have good post-emergence herbicidal activity against a broad spectrum of economically important gramineous and broadleaf weeds.

[17] = tested on: Digitaria horizontalis; assay: Post-emergence herbicidal action against Digitaria horizontalis
Description: as §2, §3

[18] = tested on: Ipomoea hederacea; assay: Post-emergence herbicidal action against Ipomoea hederacea; details: 100 g of a.i./ha
Description: as §5, §6
Seeds or rhizome pieces of mono- and dicotyledonous weeds are placed in sandy loam in pots, covered with soil and grown in a greenhouse under good growth conditions (temperature, air humidity, water supply). Three weeks after sowing, the test plants were treated at the three-leaf stage with the compositions according to the invention. The compositions according to the invention formulated as spray powders or as emulsion concentrates were sprayed onto the green plant parts in various dosages with an application rate of 300 to 800 l/ha of water (equivalent). After the test plants have been left to stand in the greenhouse under optimal growth conditions for about 3 to 4 weeks, the action of the preparations is scored visually in comparison to untreated controls. The compositions according to the invention also have good post-emergence herbicidal activity against a broad spectrum of economically important gramineous and broadleaf weeds.

C=C[C@]1(C(=O)N[C@H]2CO[C@@H](C(=O)OC)C2)CC(c2cc(F)cc(F)c2)=NO1 (relative stereo) [Compound A3, methyl rel-(2R,4R)-4-[[(5S)-3-(3,5-difluorophenyl)-5-vinyl-4H-isoxazole-5-carbonyl]amino]tetrahydrofuran-2-carboxylate]
Herbicidal action 37 DAT [%] against Echinochloa crus-galli [1]: 93% | Herbicidal action 21 DAT [%] against Sorghum halepense [2]: 40% | Herbicidal action 21 DAT against Sorghum halepense [2]: 40% | Herbicidal action 21 DAT [%] against Sorghum halepense ([2]; post-emergence): 40% | Herbicidal action in [%] 14 DAT against Phalaris minor ([3]; 1 g of a.i./ha): 10% and 20% | Herbicidal action in [%] 28 DAT against Phalaris minor ([3]; 1 g of a.i./ha): 0% and 10% | Herbicidal action in [%] 14 DAT against Phalaris minor ([3]; 4 g of a.i./ha): 90% and 85% | Herbicidal action in [%] 28 DAT against Phalaris minor ([3]; 4 g of a.i./ha): 70% | Herbicidal action in [%] 14 DAT against Phalaris minor ([3]; 16 g of a.i./ha): 85% | Herbicidal action in [%] 14 DAT against Bromus sterilis [4]: 15% and 30% | Herbicidal action in [%] 28 DAT against Bromus sterilis [4]: 15% | Herbicidal action 21 DAT against Kochia scoparia [5]: 30% | Herbicidal action 14 DAT against Lolium rigidum ([6]; 1 g of a.i./ha): 35% | Herbicidal action 28 DAT against Lolium rigidum ([6]; 1 g of a.i./ha): 15% | Herbicidal action 28 DAT against Lolium rigidum ([6]; 4 g of a.i./ha): 50% | Herbicidal action in [%] 14 DAT against Lolium rigidum ([6]; 1 g of a.i./ha): 40% | Herbicidal action in [%] 14 DAT against Lolium rigidum ([6]; 4 g of a.i./ha): 85% | Herbicidal action in [%] 28 DAT against Lolium rigidum ([6]; 1 g of a.i./ha): 10% | Herbicidal action in [%] 28 DAT against Lolium rigidum ([6]; 4 g of a.i./ha): 70% | Herbicidal action 14 DAT against Lolium rigidum ([6]; (Z61) post-emergence, g of a.i./ha: 1, 270, 90, 30, 1 + 270, 1 + 90, 1 + 30): 35% | Herbicidal action 14 DAT against Lolium rigidum (resistant biotype) ([7]; 1 g of a.i./ha): 15% and 30% | Herbicidal action 28 DAT against Lolium rigidum (resistant biotype) ([7]; 1 g of a.i./ha): 0% | Herbicidal action 14 DAT against Lolium rigidum (resistant biotype) ([7]; 4 g of a.i./ha): 40% and 60% | Herbicidal action in [%] 14 DAT against Lolium rigidum (resistant biotype) ([7]; 1 g of a.i./ha): 30% | Herbicidal action in [%] 14 DAT against Lolium rigidum (resistant biotype) ([7]; 4 g of a.i./ha): 60% | Herbicidal action 28 DAT against Lolium rigidum (resistant biotype) ([7]; 16 g of a.i./ha): 80% | Herbicidal action in [%] 28 DAT against Lolium rigidum (resistant biotype) ([7]; 1 g of a.i./ha): 0% | Herbicidal action in [%] 28 DAT against Lolium rigidum (resistant biotype) ([7]; 4 g of a.i./ha): 40% | Herbicidal action in [%] 28 DAT against Lolium rigidum (resistant biotype) ([7]; 16 g of a.i./ha): 80% | Herbicidal action 28 DAT against Lolium rigidum (resistant biotype) ([7]; (Z61) post-emergence, g of a.i./ha: 4, 1, 270, 90, 4 + 270, 1 + 90, 1 g of a.i./ha): 0% | Herbicidal action 28 DAT against Lolium rigidum (resistant biotype) ([7]; (Z61) post-emergence, g of a.i./ha: 4, 1, 270, 90, 4 + 270, 1 + 90, 4 g of a.i./ha): 10% | Herbicidal action against Alopecurus myosuroides ([8]; 14 DAT, 1 g of a.i./ha): 15% | Herbicidal action against Alopecurus myosuroides ([8]; 14 DAT, 4 g of a.i./ha): 90% | Herbicidal action against Alopecurus myosuroides ([8]; 28 DAT, 1 g of a.i./ha): 15% | Herbicidal action against Alopecurus myosuroides ([8]; 28 DAT, 4 g of a.i./ha): 50% | Herbicidal action ([9]; 50 g a.i./ha): 40% | Herbicidal action ([9]; 100 g a.i./ha): 50% | Herbicidal action in [%] 14 DAT against Alopecurus myosuroides ([10]; 1 g of a.i./ha): 15% and 30% | Herbicidal action in [%] 28 DAT against Alopecurus myosuroides ([10]; 1 g of a.i./ha): 15% and 10% | Herbicidal action in [%] 14 DAT against Alopecurus myosuroides ([10]; 1 g of a.i./ha, second 14 DAT block): 35% | Herbicidal action in [%] 14 DAT against Alopecurus myosuroides ([10]; 4 g of a.i./ha): 90% and 75% | Herbicidal action in [%] 28 DAT against Alopecurus myosuroides ([10]; 4 g of a.i./ha): 50% and 60% | Herbicidal action in [%] 28 DAT against Alopecurus myosuroides ([10]; 16 g of a.i./ha): 90% | Herbicidal action [11]: 18% | Herbicidal action against Phalaris minor ([12]; 14 DAT, 1 g of a.i./ha): 10% | Herbicidal action against Phalaris minor ([12]; 14 DAT, 4 g of a.i./ha): 90% | Herbicidal action against Phalaris minor ([12]; 14 DAT, 16 g of a.i./ha): 85% | Herbicidal action against Phalaris minor ([12]; 28 DAT, 1 g of a.i./ha): 0% | Herbicidal action against Phalaris minor ([12]; 28 DAT, 4 g of a.i./ha): 70% | Herbicidal action against Phalaris minor ([12]; 28 DAT, 16 g of a.i./ha): 40% | Herbicidal action ([13]; 14 DAT, 1 g a.i./ha): 40% | Herbicidal action ([13]; 28 DAT, 1 g a.i./ha): 10% | Herbicidal action ([13]; 28 DAT, 4 g a.i./ha): 70% | Herbicidal action against Lolium rigidum (resistant biotype) ([14]; 14 DAT, 1 g of a.i./ha): 15% | Herbicidal action against Lolium rigidum (resistant biotype) ([14]; 14 DAT, 4 g of a.i./ha): 40% | Herbicidal action against Lolium rigidum (resistant biotype) ([14]; 28 DAT, 1 g of a.i./ha): 0% | Herbicidal action 21 DAT against Setaria viridis [15]: 70% | Herbicidal action 21 DAT [%] against Setaria viridis ([15]; post-emergence): 70% | Herbicidal action 43 DAT [%] against Ranunculus repens [16]: 82% | Herbicidal action 28 DAT against Digitaria horizontalis ([17]; (Z61) post-emergence, g of a.i./ha: 200, 100, 100 + 200): 96% | Herbicidal action 28 DAT against Digitaria horizontalis ([17]; A3/Asulam, first sub-table, post-emergence, g of a.i./ha by row: 720, 100, 100 + 720): 96% | Herbicidal action 28 DAT against Digitaria horizontalis ([17]; A3/Asulam, second sub-table, post-emergence, g of a.i./ha by row: 720, 100, 100 + 720): 87% | Herbicidal action 37 DAT against Ipomoea hederacea [18]: 8% | Herbicidal action 37 DAT [%] against Ipomoea hederacea ([18]; post-emergence): 8%
